Test results: ChEMBL document CHEMBL1147118, “Efficacy of oseltamivir therapy in ferrets inoculated with different clades of H5N1 influenza virus” (2007)
Activity calls are given as the source filed them. The calls are words filed in the database; no cut-off is given here.

Assays:
Influenza A virus [1] = experiment: Antiviral activity against 10^2 EID50 influenza A/Vietnam/1203/04 H5N1 virus inoculated ferrets assessed as inhibition of virus spread in liver at 5 mg/kg after 4 hrs of inoculum for 5 days; type: functional, organism-based; design: dose 5 mg/kg
Influenza A virus [2] = experiment: Survival of 10 EID50 influenza A/Vietnam/1203/04 H5N1 virus inoculated ferrets at 5 mg/kg after 4 hrs of inoculum for 5 days; type: functional, organism-based; design: dose 5 mg/kg
Influenza A virus [3] = experiment: Survival of 10^2 EID50 influenza A/Vietnam/1203/04 H5N1 virus inoculated ferrets at 5 mg/kg after 4 hrs of inoculum for 5 days; type: functional, organism-based; design: dose 5 mg/kg
Influenza A virus [4] = experiment: Antiviral activity against 10 EID50 influenza A/Vietnam/1203/04 H5N1 virus inoculated ferrets assessed as day of death at 5 mg/kg after 4 hrs of inoculum for 5 days; type: functional
Influenza A virus [5] = experiment: Antiviral activity against 10^2 EID50 influenza A/Vietnam/1203/04 H5N1 virus inoculated ferrets assessed as day of death at 5 mg/kg after 4 hrs of inoculum for 5 days; type: functional
Influenza A virus [6] = experiment: Antiviral activity against 10 EID50 influenza A/Vietnam/1203/04 H5N1 virus inoculated ferrets assessed as weight loss at 5 mg/kg after 4 hrs of inoculum for 5 days; type: functional
Influenza A virus [7] = experiment: Antiviral activity against 10^2 EID50 influenza A/Vietnam/1203/04 H5N1 virus inoculated ferrets assessed as inhibition of viral replication in lungs at 5 mg/kg after 4 hrs of inoculum for 5 days; type: functional, organism-based; design: dose 5 mg/kg
Influenza A virus [8] = experiment: Antiviral activity against 10^2 EID50 influenza A/Vietnam/1203/04 H5N1 virus inoculated ferrets assessed as inhibition of virus spread in brain at 5 mg/kg after 4 hrs of inoculum for 5days; type: functional, organism-based; design: dose 5 mg/kg
Influenza A virus [9] = experiment: Antiviral activity against 10^2 EID50 influenza A/Vietnam/1203/04 H5N1 virus inoculated ferrets assessed as inhibition of virus spread in spleen at 5 mg/kg after 4 hrs of inoculum for 5 days; type: functional, organism-based; design: dose 5 mg/kg
Influenza A virus [10] = experiment: Antiviral activity against 10^2 EID50 influenza A/Vietnam/1203/04 H5N1 virus inoculated ferrets assessed as inhibition of viral replication in small intestine at 5 mg/kg after 4 hrs of inoculum for 5 days; type: functional, organism-based; design: dose 5 mg/kg
Influenza A virus [11] = experiment: Survival of 10^2 EID50 influenza A/Vietnam/1203/04 H5N1 virus inoculated ferrets at 10 mg/kg after 24 hrs of inoculum for 5 days; type: functional, organism-based; design: dose 10 mg/kg
Influenza A virus [12] = experiment: Survival of 10^2 EID50 influenza A/Vietnam/1203/04 H5N1 virus inoculated ferrets at 25 mg/kg after 24 hrs of inoculum for 5 days; type: functional, organism-based; design: dose 25 mg/kg
Influenza A virus [13] = experiment: Antiviral activity against 10^2 EID50 influenza A/Vietnam/1203/04 H5N1 virus inoculated ferrets assessed as day of death at 10 mg/kg after 24 hrs of inoculum for 5 days; type: functional
Influenza A virus [14] = experiment: Survival of 10^6 EID50 influenza A/turkey/15/06 H5N1 virus inoculated ferrets at 10 mg/kg twice daily after 24 hrs inoculum for 5 days; type: functional, organism-based; design: dose 10 mg/kg; settings: Influenza A virus (A/Turkey/15/2006(H5N1))
Influenza A virus [15] = experiment: Antiviral activity against 10^6 EID50 influenza A/turkey/15/06 H5N1 virus inoculated ferrets assessed as viral titer in lungs at 10 mg/kg after 24 hrs of inoculum for 5 days; type: functional, Influenza A virus (A/Turkey/15/2006(H5N1))
Influenza A virus [16] = experiment: Antiviral activity against 10^6 EID50 influenza A/turkey/15/06 H5N1 virus inoculated ferrets assessed as viral titer in brain at 10 mg/kg after 24 hrs of inoculum for 5 days; type: functional, Influenza A virus (A/Turkey/15/2006(H5N1))
Influenza A virus [17] = experiment: Antiviral activity against 10^2 EID50 influenza A/Vietnam/1203/04 H5N1 virus inoculated ferrets assessed as day of death at 25 mg/kg after 24 hrs of inoculum for 5 days; type: functional
Influenza A virus [18] = experiment: Antiviral activity against 10^2 EID50 influenza A/Vietnam/1203/04 H5N1 virus inoculated ferrets assessed as maximal change in weight loss at 5 mg/kg after 4 hrs of inoculum for 5 days; type: functional
Influenza A virus [19] = experiment: Antiviral activity against 10 EID50 influenza A/Vietnam/1203/04 H5N1 virus inoculated ferrets assessed as increase in temperature at 5 mg/kg after 4 hrs of inoculum for 5 days; type: functional
Influenza A virus [20] = experiment: Antiviral activity against 10^2 EID50 influenza A/Vietnam/1203/04 H5N1 virus inoculated ferrets assessed as increase in temperature at 5 mg/kg after 4 hrs of inoculum for 5 days; type: functional
Influenza A virus [21] = experiment: Antiviral activity against 10^2 EID50 influenza A/Vietnam/1203/04 H5N1 virus inoculated ferrets assessed as weight loss at 10 mg/kg after 24 hrs of inoculum for 5 days; type: functional
Influenza A virus [22] = experiment: Antiviral activity against 10^2 EID50 influenza A/Vietnam/1203/04 H5N1 virus inoculated ferrets assessed as weight loss at 25 mg/kg after 24 hrs of inoculum for 5 days; type: functional
Influenza A virus [23] = experiment: Antiviral activity against 10^2 EID50 influenza A/Vietnam/1203/04 H5N1 virus inoculated ferrets assessed as increase in temperature at 10 mg/kg after 24 hrs of inoculum for 5 days; type: functional
Influenza A virus [24] = experiment: Antiviral activity against 10^2 EID50 influenza A/Vietnam/1203/04 H5N1 virus inoculated ferrets assessed as increase in temperature at 25 mg/kg after 24 hrs of inoculum for 5 days; type: functional
Influenza A virus [25] = experiment: Inhibition of 10^2 EID50 influenza A/Vietnam/1203/04 H5N1 virus replication in ferrets brain at 25 mg/kg after 24 hrs of inoculum for 5 days; type: functional, organism-based; design: dose 25 mg/kg
Influenza A virus [26] = experiment: Inhibition of influenza A/Vietnam/1203/04 virus replication in ferrets upper respiratory tract at 10 mg/kg twice daily after 24 hrs of inoculum for 5 days; type: functional, organism-based; design: dose 10 mg/kg
Influenza A virus [27] = experiment: Inhibition of 10^2 EID50 influenza A/Vietnam/1203/04 H5N1 virus replication in ferrets lungs at 10 mg/kg after 24 hrs of inoculum for 5 days; type: functional, organism-based; design: dose 10 mg/kg
Influenza A virus [28] = experiment: Inhibition of 10^2 EID50 influenza A/Vietnam/1203/04 H5N1 virus replication in ferrets liver at 10 mg/kg after 24 hrs of inoculum for 5 days; type: functional, organism-based; design: dose 10 mg/kg
Influenza A virus [29] = experiment: Inhibition of 10^2 EID50 influenza A/Vietnam/1203/04 H5N1 virus replication in ferrets spleen at 10 mg/kg after 24 hrs of inoculum for 5 days; type: functional, organism-based; design: dose 10 mg/kg
Influenza A virus [30] = experiment: Inhibition of 10^2 EID50 influenza A/Vietnam/1203/04 H5N1 virus replication in ferrets lungs at 25 mg/kg after 24 hrs of inoculum for 5 days; type: functional, organism-based; design: dose 25 mg/kg
Influenza A virus [31] = experiment: Inhibition of 10^2 EID50 influenza A/Vietnam/1203/04 H5N1 virus replication in ferrets liver at 25 mg/kg after 24 hrs of inoculum for 5 days; type: functional, organism-based; design: dose 25 mg/kg
Influenza A virus [32] = experiment: Inhibition of 10^2 EID50 influenza A/Vietnam/1203/04 H5N1 virus replication in ferrets spleen at 25 mg/kg after 24 hrs of inoculum for 5 days; type: functional, organism-based; design: dose 25 mg/kg
Influenza A virus [33] = experiment: Antiviral activity against 10^6 EID50 influenza A/turkey/15/06 H5N1 virus inoculated ferrets assessed as weight loss at 10 mg/kg twice daily after 24 hrs inoculum for 5 days; type: functional, Influenza A virus (A/Turkey/15/2006(H5N1))
Influenza A virus [34] = experiment: Antiviral activity against 10^6 EID50 influenza A/turkey/15/06 H5N1 virus inoculated ferrets assessed as increase in temperature at 10 mg/kg twice daily after 24 hrs inoculum for 5 days; type: functional, Influenza A virus (A/Turkey/15/2006(H5N1))

CCOC(=O)C1=C[C@@H](OC(CC)CC)[C@H](NC(C)=O)[C@@H](N)C1 [OSELTAMIVIR]
Activity (Influenza A virus [1]): inactive
Activity (Influenza A virus [2]): Active
Activity (Influenza A virus [3]): Active
Activity (Influenza A virus [4]): >21 days
Activity (Influenza A virus [5]): 21 days
Activity (Influenza A virus [6]): 8.8%
Activity (Influenza A virus [7]): Active
Activity (Influenza A virus [8]): inactive
Activity (Influenza A virus [9]): inactive
Activity (Influenza A virus [10]): Active
Activity (Influenza A virus [11]): inactive
Activity (Influenza A virus [12]): Active
Activity (Influenza A virus [13]): 7.3 days
Activity (Influenza A virus [14]): Active
log10EID50/g (Influenza A virus [15]): <0.75
log10EID50/g (Influenza A virus [16]): <0.75
Activity (Influenza A virus [17]): >21 days
Activity (Influenza A virus [18]): 20.4%
Activity (Influenza A virus [19]): 5%
Activity (Influenza A virus [20]): 3.4%
Activity (Influenza A virus [21]): 22.1%
Activity (Influenza A virus [22]): 13.4%
Activity (Influenza A virus [23]): 5.7%
Activity (Influenza A virus [24]): 6%
Activity (Influenza A virus [25]): inactive
Activity (Influenza A virus [26]): inactive
Activity (Influenza A virus [27]): Active
Activity (Influenza A virus [28]): Active
Activity (Influenza A virus [29]): Active
Activity (Influenza A virus [30]): Active
Activity (Influenza A virus [31]): Active
Activity (Influenza A virus [32]): Active
Activity (Influenza A virus [33]): 17.9%
Activity (Influenza A virus [34]): 6%
